The values below come from patent publication US10815252B2, “Biflavone-copper complex, preparation method and application thereof” (NANJING FORESTRY UNIVERSITY, priority 2017, dated 2020).

The nature of assay [1]: Pyrogallol auto-oxidation method, free radical scavenging. Type of assay: biochemical. Particulars: Tris-HCl pH 8.20, 25° C., 322 nm, read-out: IC50 to scavenge O2^−. free radical. The method, then: (§1) The free radical scavenging capability of the Ame and the Ame-Cu complex were studied by pyrogallol auto-oxidation method and ABTS method with the following steps:
(1) Pyrogallol Auto-Oxidation Method
Determination of auto-oxidation rate V0 of pyrogallol: 2 mL Tris-HCl buffer (pH=8.20) was added to a 10 mL sample tube at 25° C., 100 μL DMSO was added as a control, after adding 0.8 mL distilled water, 0.2 mL pyrogallol solution having a concentration of 2 mmol·L^−1 was added, the mixture was poured into a cuvette after mixing uniformly, the absorbance at 322 nm was measured with pure water as a blank, the A value was recorded every 10 s for a total of 4 min, linear regression was performed with t as the abscissa, and A as the ordinate, straight line slope thereof is V0, and the measurement was performed for three times to obtain an average value. […]

Assay [2] is described as follows: ABTS method, free radical scavenging. The following applies: 25° C., 5 min reaction, 730 nm; read-out: IC50 for scavenging ABTS^+. free radicals. Type of assay: biochemical. How it is done:
as §1
Determination of ABTS^+. free radical ion scavenging capability of the blank sample: at 25° C., 2.9 mL ABTS^+. free radical ion working solution was added into a 10 mL sample tube, 100 μL DMSO was added, after reacting for 5 min, the UV-vis spectrum was measured, and the absorption intensity A0 at 730 nm was recorded.
Determination of […]. free radical ion scavenging capability of the samples: at 25° C., 2.9 mL ABTS^+. free radical ion working solution was added into a 10 mL sample tube, 100 μL samples of different concentrations that were dissolved in DMSO were added, after reacting for 5 min, the UV-vis spectrum was measured, and the absorption intensity A1 at 730 nm was recorded, and the ABTS^+. free radical ion scavenging rate was calculated according to Formula 4. SR(%)=(1−A1/A0)×100% (Formula 4)
The ABTS^+. free radical scavenging capabilities of the Ame and the Ame-Cu complex are concentration dependent. Within a certain range, the scavenging rate is linear with the concentration. The curve of the scavenging rate and the concentration (c) is plotted in the present invention to obtain a corresponding linear equation, and the maximum half-inhibitory concentration (IC50 value) is calculated.

A further assay concerns herring sperm DNA (fDNA). The experiment in a line: Interaction with fDNA by UV-vis spectroscopy, fluorescence spectroscopy and viscosity method. Type of assay: binding. Particulars: UV-vis, fluorescence (fDNA-EB system), viscosity. An excerpt: UV-vis spectroscopy, fluorescence spectroscopy and viscosity method are used to study the interaction between the Ame and herring sperm DNA (fDNA), and the interaction between the Ame-Cu complex and herring sperm DNA (fDNA), to further reveal the mechanism of antitumor activity, the obtained spectra are shown in FIGS. 7-11. […] Thereby, it can be speculated that the mechanism of antitumor activity of the Ame and its complex may be that Ame or the complex thereof enters the interior of the cell and intercalates with the DNA strand to cause apoptosis. Since the interaction of the complex with DNA is stronger than of the Ame, the antitumor activity thereof is also stronger than of the Ame.

By IC50 is commonly meant the concentration needed to halve the response being measured. On to `O=c1cc(-c2ccc(O)c(-c3c(O)cc(O)c4c(=O)cc(-c5ccc(O)cc5)oc34)c2)oc2cc(O)cc(O)c12` [Ame, amentoflavone], for which the IC50 came to 23.3 µM in assay [1] and 20.7 µM in assay [2]. Besides, the “manner of interaction with fDNA” value in the assay with herring sperm DNA (fDNA) is “intercalation manner”.

With `CS(C)=[O+][Cu-4]1([O+]=S(C)C)[O+]=C2C=C(c3ccc(O)cc3)Oc3c2c(cc(O)c3-c2cc(-c3cc(=O)c4c(O)cc(O)cc4o3)ccc2O)[OH+]1` [Ame-Cu complex], the IC50 was determined as 4.57 µM in assay [1] and 6.31 µM in assay [2]. In the assay with herring sperm DNA (fDNA), the “manner of interaction with fDNA” value is “intercalation manner”.
